Test results from patent US8440836B2, “Heterocyclic alkanol derivatives” (Bayer Intellectual Property GmbH, priority 2010, dated 2013).

System: Blumeria graminis f.sp. hordei
Experiment: Blumeria graminis test (barley)/protective
Type: in vivo
Settings: barley plants, protective spray, 500 ppm active ingredient, evaluation 7 days after inoculation

SMILES | efficacy
CC(CF)(CF)C(O)(COc1ccc(I)cc1)c1cncs1 (centres unmarked) [Compound 4] | 100%
CC(CF)(CF)C(O)(COc1ccc(Br)cc1)c1cncs1 (centres unmarked) [Compound 8] | 89%
OC(Cc1ccccc1Cl)(c1cncs1)C1(F)CC1 (centres unmarked) [Compound 11] | 78%
OC(Cc1cnc(I)s1)(Cc1ccccc1Cl)C1(Cl)CC1 (centres unmarked) [Compound 39] | 90%
CC(C)(C)C(O)(COc1ccc(F)cc1)c1cncs1 (centres unmarked) [Compound 42] | 100%
CC(C)(C)C(O)(COc1ccc(Cl)cc1)c1cnc(S)s1 (centres unmarked) [Compound 12] | 89%
CC(C)(C)C(O)(COc1ccc(OC(F)(F)F)cc1)c1cncs1 (centres unmarked) [Compound 20] | 100%

System: Leptosphaeria nodorum
Experiment: Leptosphaeria nodorum test (wheat)/protective
Type: in vivo
Settings: wheat plants, protective spray, 500 ppm active ingredient, evaluation 8 days after inoculation

SMILES | efficacy
CC(CF)(CF)C(O)(COc1ccc(I)cc1)c1cncs1 (centres unmarked) [Compound 4] | 100%
CC(C)(C)C(O)(COc1ccc(Cl)cc1)c1cnc(S)s1 (centres unmarked) [Compound 12] | 86%
CC(C)(C)C(O)(COc1ccc(OC(F)(F)F)cc1)c1cncs1 (centres unmarked) [Compound 20] | 100%

System: Puccinia triticina
Experiment: Puccinia triticina test (wheat)/protective
Type: in vivo
Settings: wheat plants, protective spray, 500 ppm active ingredient, evaluation 8 days after inoculation
Excerpt: Evaluation follows 8 days after the inoculation.

SMILES | efficacy
CC(CF)(CF)C(O)(COc1ccc(I)cc1)c1cncs1 (centres unmarked) [Compound 4] | 100%
CC1(C(O)(COc2ccc(I)cc2)c2cncs2)CCCCC1 (centres unmarked) [Compound 25] | 78%
CC(C)(C)C(O)(COc1ccc(F)cc1)c1cncs1 (centres unmarked) [Compound 42] | 89%
CC(C)(C)C(O)(COc1ccc(OC(F)(F)F)cc1)c1cncs1 (centres unmarked) [Compound 20] | 100%

System: Septoria tritici
Experiment: Septoria tritici test (wheat)/protective
Type: in vivo
Settings: wheat plants, protective spray, 500 ppm active ingredient, evaluation 21 days after inoculation

SMILES | efficacy
CC(CF)(CF)C(O)(COc1ccc(I)cc1)c1cncs1 (centres unmarked) [Compound 4] | 100%
CC1(C(O)(COc2ccc(I)cc2)c2cncs2)CCCCC1 (centres unmarked) [Compound 25] | 86%
CC(C)(C)C(O)(COc1ccc(OC(F)(F)F)cc1)c1cncs1 (centres unmarked) [Compound 20] | 100%

System: not listed separately
Experiment: logP by HPLC (EEC Directive 79/831 Annex V.A8)
Type: physicochemical
Settings: HPLC reversed-phase C18, method [a]: LC-MS, pH 2.7, 0.1% aqueous formic acid / acetonitrile, gradient 10% to 95% acetonitrile

SMILES | logP
CC1(C(O)(COc2cccc([N+](=O)[O-])c2)c2cncs2)CC1 (centres unmarked) [Compound 45] | logP 2.62^[a]; [M + H]^+ = 321
OC(Cc1cnc(Cl)s1)(Cc1ccccc1F)C1(Cl)CC1 (centres unmarked) [Compound 59] | logP 4.21^[a]; [M + H]^+ = 346
CC(C)(C)C(O)(COc1ccc(-c2ccc(C#N)cc2)cc1)c1cncs1 (centres unmarked) [Compound 51] | logP 3.46^[a]; [M + H]^+ = 379
CC(C)(C)C(O)(COc1ccc(-c2ccccc2)cc1)c1cncs1 (centres unmarked) [Compound 50] | logP 4.03^[a]; [M + H]^+ = 354
CC(C)(C)C(O)(COc1ccc(Cl)cc1)Cc1cnc(Cl)s1 (centres unmarked) [Compound 61] | logP 4.68^[a]; [M + H]^+ = 360
CC(C)(C)C(O)(COc1ccc(SC(F)(F)Cl)cc1)c1cncs1 (centres unmarked) [Compound 58] | logP 4.23^[a]; [M + H]^+ = 394
CC(C)(C)C(O)(COc1ccc(Oc2ccc(C(F)(F)F)cc2)cc1)c1cncs1 (centres unmarked) [Compound 32] | logP 4.63^[a]; [M + H]^+ = 438
CC(C)(C)C(O)(COc1ccc(C2CCCC2)cc1)c1cncs1 (centres unmarked) [Compound 80] | logP 4.78^[a]; [M + H]^+ = 346
CC(C)(C)C(O)(COc1ccc(I)cc1)Cc1cnc(Cl)s1 (centres unmarked) [Compound 62] | logP 5.12^[a]; [M + H]^+ = 452
CC(CF)(CF)C(O)(COc1ccc(Br)cc1)c1cncs1 (centres unmarked) [Compound 8] | logP 3.02^[a]; [M + H]^+ = 392/394.
CC1(C(O)(COc2ccccc2I)c2cncs2)CC1 (centres unmarked) [Compound 55] | logP 3.33^[a]; [M + H]^+ = 402
CC1(C(O)(COc2cccc(Br)c2)c2cncs2)CC1 (centres unmarked) [Compound 27] | logP 3.24^[a]; [M + H]^+ = 354, 356
OC(COc1ccc(I)cc1)(c1cncs1)C1(C(F)(F)F)CC1 (centres unmarked) [Compound 81] | logP 3.59^[a]; [M + H]^+ = 456
CC(C)(C)C(O)(COc1ccc(-c2ccc(I)cc2)cc1)c1cncs1 (centres unmarked) [Compound 19] | logP 4.89^[a]; [M + H]^+ = 480
CC(C)[Si](c1ncc(C(O)(Cc2ccccc2Cl)C2(Cl)CC2)o1)(C(C)C)C(C)C (centres unmarked) [Compound 68] | logP 7.18^[a]; [M + H]^+ = 455
CC1(C(O)(COc2ccc(Cl)cc2)c2cncs2)CCCCC1 (centres unmarked) [Compound 34] | logP 4.25^[a]; [M + H]^+ = 352
OC(COc1ccc(Br)cc1)(c1cncs1)C1(C(F)(F)F)CC1 (centres unmarked) [Compound 82] | logP 3.43^[a]; [M + H]^+ = 408/410
CC(CF)(CF)C(O)(COc1ccc(Cl)cc1)c1cncs1 (centres unmarked) [Compound 9] | logP 2.94^[a]; [M + H]^+ = 348
CC(C)(C)C(O)(COc1ccc(Oc2ccc(Br)cc2)cc1)c1cncs1 (centres unmarked) [Compound 28] | logP 4.66^[a]; [M + H]^+ = 448/450
CC(C)(C)C(O)(COc1ccc(-c2ccc(C(F)(F)F)cc2)cc1)c1cncs1 (centres unmarked) [Compound 30] | logP 4.62^[a]; [M + H]^+ = 422
CC1(C(O)(COc2ccc(I)cc2)c2cncs2)CCCCC1 (centres unmarked) [Compound 25] | logP 4.53^[a]; [M + H]^+ = 444
CC(C)(C)C(O)(CCc1ccc(OC(F)(F)F)cc1)c1cncs1 (centres unmarked) [Compound 74] | logP 3.93^[a]; [M + H]^+ = 360
CC(C)(C)C(O)(COc1ccc(Oc2ccc(F)cc2)cc1)c1cncs1 (centres unmarked) [Compound 38] | logP 4.03^[a]; [M + H]^+ = 388
CC(C)[Si](c1ncc(C(O)(CCc2ccc(Cl)cc2)C(C)(C)C)o1)(C(C)C)C(C)C (centres unmarked) [Compound 70] | logP 7.36^[a]; [M + H]^+ = 451
COc1ccc(CCC(O)(c2cncs2)C(C)(C)C)cc1 (centres unmarked) [Compound 73] | logP 2.94^[a]; [M + H]^+ = 306
OC(Cc1ccccc1Cl)(c1cncs1)C1(F)CC1 (centres unmarked) [Compound 11] | logP 2.64^[a]; [M + H]^+ = 298
CCN(C)C=Nc1ccc(CCC(O)(c2cncs2)C(C)(C)C)cc1 (centres unmarked) [Compound 78] | logP 1.33^[a]; [M + H]^+ = 360
CC(C)(C)C(O)(COc1ccc(F)cc1)c1cncs1 (centres unmarked) [Compound 42] | logP 2.91^[a]; [M + H]^+ = 296
CC(C)(C)C(O)(CCc1ccc(Br)cc1)c1cncs1 (centres unmarked) [Compound 72] | logP 3.69^[a]; [M + H]^+ = 354, 356

Same assay, conditions: reversed-phase C18 HPLC column; HPLC reversed-phase C18, method [a]: LC-MS, pH 2.7, 0.1% aqueous formic acid / acetonitrile, gradient 10% to 95% acetonitrile

SMILES | chromatographic logP
CC(CF)(CF)C(O)(COc1ccc(I)cc1)c1cncs1 (centres unmarked) [Compound 4] | 3.16
CC(C)(C)C(O)(COc1ccc(Cl)cc1)c1cnc(S)s1 (centres unmarked) [Compound 12] | 3.06

System: Sphaerotheca fuliginea
Experiment: Sphaerotheca test (cucumber)/protective
Settings: cucumber plants, protective spray, 500 ppm active ingredient, evaluation 7 days after inoculation
Description: • Solvent: 49 parts by weight of N,N-dimethylformamide • Emulsifier: 1 part by weight of alkylaryl polyglycol ether
To produce an appropriate active ingredient formulation, 1 part by weight of active ingredient is mixed with the specified amounts of solvent and emulsifier, and the concentrate is diluted with water to the desired concentration. To test for protective activity, young cucumber plants are sprayed with the formulation of active ingredient at the stated application rate. 1 day after the treatment, the plants are inoculated with a spore suspension of Sphaerotheca fuliginea. The plants are then placed in a greenhouse at 70% relative air humidity and a temperature of 23° C. Evaluation follows 7 days after the inoculation.

SMILES | efficacy
CC(CF)(CF)C(O)(COc1ccc(I)cc1)c1cncs1 (centres unmarked) [Compound 4] | 100%
CC(C)(C)C(O)(COc1ccc(-c2ccc(C#N)cc2)cc1)c1cncs1 (centres unmarked) [Compound 51] | 94%
CC(C)(C)C(O)(COc1ccc(-c2ccccc2)cc1)c1cncs1 (centres unmarked) [Compound 50] | 100%
CC(C)(C)C(O)(COc1ccc(Oc2ccc(C(F)(F)F)cc2)cc1)c1cncs1 (centres unmarked) [Compound 32] | 96%
CC(C)(C)C(O)(COc1ccc(C2CCCC2)cc1)c1cncs1 (centres unmarked) [Compound 80] | 94%
CC(CF)(CF)C(O)(COc1ccc(Br)cc1)c1cncs1 (centres unmarked) [Compound 8] | 94%
CC1(C(O)(COc2cccc(Br)c2)c2cncs2)CC1 (centres unmarked) [Compound 27] | 93%
CC1(C(O)(COc2ccc(Cl)cc2)c2cncs2)CCCCC1 (centres unmarked) [Compound 34] | 99%
CC(CF)(CF)C(O)(COc1ccc(Cl)cc1)c1cncs1 (centres unmarked) [Compound 9] | 95%
CC(C)(C)C(O)(COc1ccc(Oc2ccc(Br)cc2)cc1)c1cncs1 (centres unmarked) [Compound 28] | 95%
CC1(C(O)(COc2ccc(I)cc2)c2cncs2)CCCCC1 (centres unmarked) [Compound 25] | 100%
CC(C)(C)C(O)(CCc1ccc(OC(F)(F)F)cc1)c1cncs1 (centres unmarked) [Compound 74] | 100%
CC(C)(C)C(O)(COc1ccc(Oc2ccc(F)cc2)cc1)c1cncs1 (centres unmarked) [Compound 38] | 98%
COc1ccc(CCC(O)(c2cncs2)C(C)(C)C)cc1 (centres unmarked) [Compound 73] | 78%
OC(Cc1ccccc1Cl)(c1cncs1)C1(F)CC1 (centres unmarked) [Compound 11] | 70%
OC(Cc1cnc(I)s1)(Cc1ccccc1Cl)C1(Cl)CC1 (centres unmarked) [Compound 39] | 100%
CC(C)(C)C(O)(COc1ccc(F)cc1)c1cncs1 (centres unmarked) [Compound 42] | 94%
CC(C)(C)C(O)(COc1ccc(Cl)cc1)c1cnc(S)s1 (centres unmarked) [Compound 12] | 98%
CC(C)(C)C(O)(CCc1ccc(Br)cc1)c1cncs1 (centres unmarked) [Compound 72] | 100%
CC(C)(C)C(O)(COc1ccc(OC(F)(F)F)cc1)c1cncs1 (centres unmarked) [Compound 20] | 88%
